Test results published in patent US7998978B2 (Pfizer Inc., priority 2006, dated 2011).

Target: T1, JNK1α1 (Homo sapiens, UniProt P45983)
T1 construct: catalytic domain containing amino acids 1-364 and N-terminal hexahistidine tag; hexahistidine (His6) (N); made in house; host or cells: E. coli BL21 (DE3)
Assay: Coupled spectrophotometric (PK/LDH) JNK1α1 assay: % inhibition and Ki determination
Type: biochemical
Settings: @1 uM; read-out: % Inhibition JNK-1
In short: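 Initial rates were taken from the absorbance decrease at 340 nm at 30° C. Ki was fitted with a tight-binding model over 11 concentrations (top 100 μM); single-point inhibition was tested at 1 or 10 μM.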

T1 sequence (P45983 1-364): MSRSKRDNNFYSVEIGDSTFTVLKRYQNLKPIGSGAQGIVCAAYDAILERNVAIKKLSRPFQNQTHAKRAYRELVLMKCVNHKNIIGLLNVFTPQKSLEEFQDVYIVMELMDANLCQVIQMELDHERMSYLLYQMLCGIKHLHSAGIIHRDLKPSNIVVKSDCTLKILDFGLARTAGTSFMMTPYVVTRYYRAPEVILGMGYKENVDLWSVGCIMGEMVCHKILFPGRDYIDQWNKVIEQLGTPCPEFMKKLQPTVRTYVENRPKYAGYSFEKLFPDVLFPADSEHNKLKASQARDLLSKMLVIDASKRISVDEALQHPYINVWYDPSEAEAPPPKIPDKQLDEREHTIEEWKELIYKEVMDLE

Row | Compound | inhibition at 1 µM [%]
1 | O=C(NCCc1nc2ccccc2[nH]1)c1cccc2cnc(N[C@H]3CC[C@H](O)CC3)nc12 [Example 480, N-[2-(1H-benzimidazol-2-yl)ethyl]-2-[(trans-4-hydroxycyclohexyl)amino]quinazoline-8-carboxamide] | 11
2 | Cc1cccc(CNC(=O)c2cccc3cnc(N[C@H]4CC[C@H](O)CC4)nc23)n1 [Example 481, 2-[(trans-4-hydroxycyclohexyl)amino]-N-[(6-methylpyridin-2-yl)methyl]quinazoline-carboxamide] | 14
3 | CC(Cn1cccn1)NC(=O)c1cccc2cnc(N[C@H]3CC[C@H](O)CC3)nc12 (stereo partly drawn) [Example 482, 2-[(trans-4-hydroxycyclohexyl)amino]-N-[1-methyl-2-(1H-pyrazol-1-yl)ethyl]quinazoline-8-carboxamide] | 13
4 | O=C(NC1CCCOC1)c1cccc2cnc(N[C@H]3CC[C@H](O)CC3)nc12 (stereo partly drawn) [Example 488, 2-[(trans-4-hydroxycyclohexyl)amino]-N-(tetrahydro-2H-pyran-3-yl)quinazoline-8-carboxamide] | 40
5 | CCn1cc(CNC(=O)c2cccc3cnc(N[C@H]4CC[C@H](O)CC4)nc23)cn1 [Example 489, N-[(1-ethyl-1H-pyrazol-4-yl)methyl]-2-[(trans-4-hydroxycyclohexyl)amino]quinazoline-8-carboxamide] | 16
6 | O=C(NCCn1ccnc1)c1cccc2cnc(N[C@H]3CC[C@H](O)CC3)nc12 [Example 491, 2-[(trans-4-hydroxycycbohexyl)amino]-N-[2-(1H-imidazol-1-yl)ethyl]quinazoline-8-carboxamide] | 13
7 | CC(NC(=O)c1cccc2cnc(N[C@H]3CC[C@H](O)CC3)nc12)c1ccncn1 (stereo partly drawn) [Example 492, 2-[(trans-4-hydroxycyclohexyl)amino]-N-(1-pyrimidin-4-ylethyl)quinazoline-8-carboxamide] | 12
8 | O=C(NCCN1CCCC1=O)c1cccc2cnc(N[C@H]3CC[C@H](O)CC3)nc12 [Example 493, 2-[(trans-4-hydroxycyclohexyl)amino]-N-(2-(2-oxopyrrolidin-1-yl)ethyl]quinazoline-8-carboxamide] | 11
9 | O=C(NCCc1cn2ccccc2n1)c1cccc2cnc(N[C@H]3CC[C@H](O)CC3)nc12 [Example 494, 2-[(trans-4-hydroxycyclohexyl)amino]-N-(2-imidazol[1,2-a]pyridin-2-ylethyl)quinazoline-8-carboxamide] | 16
10 | CCn1nc(C)c(CNC(=O)c2cccc3cnc(N[C@H]4CC[C@H](O)CC4)nc23)c1C [Example 496, N-[(1-ethyl-3,5-dimethyl-1H-pyrazol-4-yl)methyl]-2-[(trans-4-hydroxycyclohexyl)amino]quinazoline-8-carboxamide] | 41
11 | O=C(NCc1nncn1C1CCCCC1)c1cccc2cnc(N[C@H]3CC[C@H](O)CC3)nc12 [Example 497, N-[(4-cyclohexyl-4H-1,2,4-triazol-3-yl)methyl]-2-[(trans-4-hydroxycyclohexyl)amino]quinazoline-8-carboxamide] | 13
12 | Cc1ccn(CCNC(=O)c2cccc3cnc(N[C@H]4CC[C@H](O)CC4)nc23)n1 [Example 498, 2-[(trans-4-hydroxycyclohexyl)amino]-N-[2-(3-methyl-1H-pyrazol-1-yl)ethyl]quinazoline-8-carboxamide] | 11
13 | O=C(NCCc1cn2cccnc2n1)c1cccc2cnc(N[C@H]3CC[C@H](O)CC3)nc12 [Example 499, 2-[(trans-4-hydroxycyclohexyl)amino]-N-(2-imidazo[1,2-a]pyrimidin-2-ylethyl)quinazoline-8-carboxamide] | 8

Same assay, conditions: @10 uM; read-out: % Inhibition JNK-1

Row | Compound | inhibition at 10 µM [%]
14 | Cc1cc(C)n(CC(C)NC(=O)c2cccc3cnc(N[C@H]4CC[C@H](O)CC4)nc23)n1 (stereo partly drawn) [Example 483, N-[2-(3,5-dimethyl-1H-pyrazol-1-yl)-1-methylethyl]-2-[(trans-4-hydroxycyclohexyl)amino]quinazoline-8-carboxamide] | 71
15 | CCc1cc(CNC(=O)c2cccc3cnc(N[C@H]4CC[C@H](O)CC4)nc23)on1 [Example 484, N-[(3-ethylisoxazol-5-yl)methyl]-2-[(trans-4-hydroxycyclohexyl)amino]quinazoline-8-carboxamide] | 57
16 | Cc1nccn1CCNC(=O)c1cccc2cnc(N[C@H]3CC[C@H](O)CC3)nc12 [Example 485, 2-[(trans-4-hydroxycyclohexyl)amino]-N-[2-(2-methyl-1H-imidazol-1-yl)ethyl]quinazoline-8-carboxamide] | 72
17 | O=C(NCCN1CCCCC1=O)c1cccc2cnc(N[C@H]3CC[C@H](O)CC3)nc12 [Example 486, 2-[(trans-4-hydroxycyclohexyl)amino]-N-[2-(2-oxopiperidin-1-yl)ethyl]quinazoline-8-carboxamide] | 50
18 | Cc1ccc(C(C)NC(=O)c2cccc3cnc(N[C@H]4CC[C@H](O)CC4)nc23)cn1 (stereo partly drawn) [Example 487, 2-[(trans-4-hydroxycyclohexyl)amino]-N-[1-(6-methylpyridin-3-yl)ethyl]quinazoline-8-carboxamide] | 51
19 | O=C(NCc1nnc(C2CC2)[nH]1)c1cccc2cnc(N[C@H]3CC[C@H](O)CC3)nc12 [Example 490, N-[(5-cyclopropyl-4H-1,2,4-triazol-3-yl)methyl]-2-[(trans-4-hydroxycyclohexyl)amino]quinazoline-8-carboxamide] | 40
20 | Cc1cccnc1CC(C)NC(=O)c1cccc2cnc(N[C@H]3CC[C@H](O)CC3)nc12 (stereo partly drawn) [Example 495, 2-[(trans-4-hydroxycyclohexyl)amino]-N-(1-methyl-2-(3-methylpyridin-2-yl)ethyl]quinazoline-8-carboxamide] | 76
21 | CC(C)c1noc(CNC(=O)c2cccc3cnc(N[C@H]4CC[C@H](O)CC4)nc23)n1 [Example 500, 2-[(trans-4-hydroxycyclohexyl)amino]-N-[(3-isopropyl-1,2,4-oxadiazol-5-yl)methyl]quinazoline-8-carboxamide] | 38
22 | O=C(NCc1noc(-c2ccccc2)n1)c1cccc2cnc(N[C@H]3CC[C@H](O)CC3)nc12 [Example 501, 2-[(trans-4-hydroxycyclohexyl)amino]-N-[(5-phenyl-1,2,4-oxadiazol-3-yl)methyl]quinazoline-8-carboxamide] | 60
23 | CC(C)c1nc(CNC(=O)c2cccc3cnc(N[C@H]4CC[C@H](O)CC4)nc23)no1 [Example 502, 2-[(trans-4-hydroxycyclohexyl)amino]-N-[(5-isopropyl-1,2,4-oxadiazol-3-yl)methyl]quinazoline-8-carboxamide] | 50
24 | CC(C)(C)N1CC(CNC(=O)c2cccc3cnc(N[C@H]4CC[C@H](O)CC4)nc23)CC1=O (stereo partly drawn) [Example 503, N-[(1-tert-butyl-5-oxopyrrolidin-3-yl)methyl]-2-[(trans-4-hydroxycyclohexyl)amino]quinazoline-8-carboxamide] | 54
25 | CC(C)(C)C(=O)N1CCC(NC(=O)c2cccc3cnc(N[C@H]4CC[C@H](O)CC4)nc23)C1 (stereo partly drawn) [Example 504, N-[1-(2,2-dimethylpropanoyl)pyrrolidin-3-yl]-2-[(trans-4-hydroxycyclohexyl)amino]quinazoline-8-carboxamide] | 40
